Drawing on publication PMC5252617 (Pharmaceutical research, 2012), this text covers KI (inactivation) for two compounds.

The target of the test is T1, human apical sodium-dependent bile acid transporter (hASBT) (Homo sapiens, UniProt Q12908).
T1 sequence (Q12908 1-348): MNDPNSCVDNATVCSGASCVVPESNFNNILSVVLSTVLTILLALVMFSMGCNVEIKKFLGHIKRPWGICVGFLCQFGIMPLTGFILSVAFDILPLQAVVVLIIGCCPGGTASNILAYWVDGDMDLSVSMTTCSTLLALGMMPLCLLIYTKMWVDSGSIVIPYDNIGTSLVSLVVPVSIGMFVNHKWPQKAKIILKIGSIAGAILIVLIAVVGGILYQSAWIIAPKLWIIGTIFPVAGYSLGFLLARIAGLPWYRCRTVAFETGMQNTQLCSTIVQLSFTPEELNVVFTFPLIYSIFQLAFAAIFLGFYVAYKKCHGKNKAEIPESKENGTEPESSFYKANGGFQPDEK
Description: time-dependent inactivation of [3H]-TCA uptake after pre-incubation, hASBT-MDCK. In kind it is cell-based.

Each structure is given as a SMILES string. Like-named read-outs stand apart in the source and are kept apart here.

As to `C[C@H](CCC(=O)O)[C@H]1CC[C@H]2[C@@H]3[C@H](O)C[C@@H]4C[C@@H](Cl)CC[C@]4(C)[C@H]3CC[C@]12C` [3β-Cl-CDCA, 3β-chloro-7α-hydroxy-5β-cholan-24-oic acid], the KI (inactivation) (read-out: 3β-Cl-CDCA) came out at 810 ± 190 nM.
For `C[C@H](CCC(=O)O)[C@H]1CC[C@H]2[C@@H]3[C@H](OS(C)(=O)=O)C[C@@H]4C[C@H](O)CC[C@]4(C)[C@H]3CC[C@]12C` [7α-Ms-CDCA, 3α-hydroxy-7α-mesyloxy-5β-cholan-24-oic acid], where the note is “read-out: 7α-Ms-CDCA”, the KI (inactivation) was 1190 ± 60 nM.
